# Patent US6121285A, “Substituted aminocycloalkylpyrrolidine derivatives and cis-substituted aminocycloalkylpyrrolidine derivatives” (Daiichi Pharmaceutical Co., Ltd., priority 1995, dated 2000)
# Where two headings read alike, the source gives them in different places.
# Columns and labels:
# [1] = tested on: Slc:ddy five week male mice; assay: Acute toxicity, intravenous administration to mice; type: in vivo; settings: for Number of death: hydrochloride in distilled water; for acute toxicity result in words: same test as cis/trans (cis: 0/5 deaths)
# Procedure: A solution of 5-amino-7-[4-(R)-(1-aminocyclopropyl)-3-(S)-fluoro-1-pyrrolidinyl]-6-fluoro-1-[2-(S)-fluoro-1-(R)-cyclopropyl]-1,4-dihydro-8-methyl-4-oxoquinoline-3-carboxylic acid (abbreviated as cis) hydrochloride of Example 15 or 5-amino-7-[4-(R)-(1-aminocyclopropyl)-3-(R)-fluoro-1-pyrrolidinyl]-6-fluoro-1-[2-(S)-fluoro-1-(R)-cyclopropyl]-1,4-dihydro-8-methyl-4-oxoquinoline-3-carboxylic acid (abbreviated as trans) hydrochloride in distilled water for injection was administered intravenously to Slc:ddy five week male mice (five mice per group) and the symptoms are observed.
# S. epidermidis, 56500 = assay: Antimicrobial activity (MIC), standard method of the Japan Society of Chemotherapy; type: cell-based
# Procedure: (§1) Examples of the first and second aspects of the present invention are given below by way of illustration and not by way of limitation. In-this regard, the antibacterial and antimicrobial activities of the compounds of interest were measured in accordance with the standard method specified by the Japan Society of Chemotherapy. The results are shown in Tables 1 to 5 as a minimum inhibitory concentration (MIC,μg/ml). Unless otherwise indicated, all percents (%) are by weight.
# Pr. vulgaris, 08601 = assay: as above; type: cell-based; settings: for MIC: Proteus vulgaris, read-out: minimum inhibitory concentration (MIC)
# Procedure: as §1
# Ps. aeruginosa, 32104 = assay: as above; type: cell-based; settings: for minimum inhibitory concentration (MIC): Ps. aeruginosa
# Procedure: as §1
# S. flexneli, 2A 5503 = assay: as above; type: cell-based; settings: for minimum inhibitory concentration (MIC): S. flexneli, 2A 5503
# Procedure: as §1
# [2] = tested on: Ps. maltophilia, IID-1275; assay: as above; type: cell-based
# Procedure: as §1
# [3] = tested on: Str. faecalis, ATCC-19433; assay: as above; type: cell-based
# Procedure: as §1
# S. aureus, 209P = assay: as above; type: cell-based
# Procedure: as §1
# Ps. aeruginosa, 32121 = assay: as above; type: cell-based
# Procedure: as §1
# E. coli, NIHJ = assay: as above; type: cell-based
# Procedure: as §1
# Pr. mirabilis, IFO-3849 = assay: as above; type: cell-based
# Procedure: as §1
# S. aureus, 870307 = assay: as above; type: cell-based
# Procedure: as §1
# Str. pyogenes, G-36 = assay: as above; type: cell-based
# Procedure: as §1
# Ser. marcescens, 10100 = assay: as above; type: cell-based
# Procedure: as §1
# [4] = 150 mg/kg, * = test stopped when second mouse died
# [5] = Staphylococcus epidermidis, S. epidermidis, 56500, read-out: minimum inhibitory concentration (MIC)
# [6] = Staphylococcus aureus, read-out: minimum inhibitory concentration (MIC)
compound,measurement,setting,value
"Cc1c(N2C[C@H](F)[C@@H](C3(N)CC3)C2)c(F)c(N)c2c(=O)c(C(=O)O)cn([C@@H]3C[C@@H]3F)c12.Cl [Example 5, 5-Amino-7-[4-(R)-(1-aminocyclopropyl)-3-(R)-fluoro-1-pyrrolidinyl]-6-fluoro-1-[2-(S)-fluoro-1-(R)-cyclopropyl]-1,4-dihydro-8-methyl-4-oxoquinoline-3-carboxylic acid hydrochloride]",Number of death,[1]; 50 mg/kg,0/5
same,Number of death,"[1]; 100 mg/kg, * = test stopped when second mouse died",2/2
same,Number of death,[1]; [4],2/2
same,MIC,"S. epidermidis, 56500; [5]",≤ 0.003 µg/mL
"COc1c(N2C[C@@H](F)[C@@H](C3(N)CC3)C2)c(F)cc2c(=O)c(C(=O)O)cn([C@@H]3C[C@@H]3F)c12 [Example 12, 7-[4-(R)-(1-Aminocyclopropyl)-3-(S)-fluoro-1-pyrrolidinyl]-6-fluoro-1-[2-(S)-fluoro-1-(R)-cyclopropyl]-1,4-dihydro-8-methoxy-4-oxoquinoline-3-carboxylic acid]",acute toxicity result in words,[1]; 150 mg/kg,same result
same,MIC,"Pr. vulgaris, 08601",0.006 µg/mL
same,minimum inhibitory concentration (MIC),"Ps. aeruginosa, 32104; listed as 18",0.20 µg/mL
same,minimum inhibitory concentration (MIC),"S. flexneli, 2A 5503",0.013 µg/mL
same,minimum inhibitory concentration (MIC),"S. flexneli, 2A 5503; listed as 18",0.006 µg/mL
"Cc1c(N2C[C@@H](F)[C@@H](C3(N)CC3)C2)c(F)c(N)c2c(=O)c(C(=O)O)cn([C@@H]3C[C@@H]3F)c12.Cl [Example 15, 5-Amino-7-[4-(R)-(1-aminocyclopropyl)-3-(S)-fluoro-1-pyrrolidinyl]-6-fluoro-1-[2-(S)-fluoro-1-(R)-cyclopropyl]-1,4-dihydro-8-methyl-4-oxoquinoline-3-carboxylic acid hydrochloride]",Number of death,[1]; [4],0/5
"Cc1c(N2C[C@@H](F)[C@@H](C3(N)CCC3)C2)c(F)c(N)c2c(=O)c(C(=O)O)cn([C@@H]3C[C@@H]3F)c12 (single isomer, unassigned; isomer b) [Example 13]",acute toxicity result in words,[1]; 150 mg/kg,same result
same,minimum inhibitory concentration (MIC),"Pr. vulgaris, 08601",0.025 µg/mL
same,minimum inhibitory concentration (MIC),[2],0.20 µg/mL
same,minimum inhibitory concentration (MIC),"Ps. aeruginosa, 32104",0.20 µg/mL
same,minimum inhibitory concentration (MIC),[3],0.025 µg/mL
same,minimum inhibitory concentration (MIC),"S. epidermidis, 56500; S. epidermidis, 56500",0.006 µg/mL
same,minimum inhibitory concentration (MIC),"S. aureus, 209P",≤ 0.003 µg/mL
same,minimum inhibitory concentration (MIC),"Ps. aeruginosa, 32121",0.10 µg/mL
same,minimum inhibitory concentration (MIC),"E. coli, NIHJ",≤ 0.003 µg/mL
same,minimum inhibitory concentration (MIC),"Pr. mirabilis, IFO-3849",0.05 µg/mL
same,minimum inhibitory concentration (MIC),"S. aureus, 870307",0.05 µg/mL
same,minimum inhibitory concentration (MIC),"Str. pyogenes, G-36",0.006 µg/mL
same,minimum inhibitory concentration (MIC),"Ser. marcescens, 10100",0.20 µg/mL
same,minimum inhibitory concentration (MIC),"S. flexneli, 2A 5503",0.006 µg/mL
"Cc1c(N2C[C@@H](CO)[C@@H](C3(N)CC3)C2)c(F)c(N)c2c(=O)c(C(=O)O)cn(C3CC3)c12 (relative stereo) [Example 14, 5-Amino-7-[cis-4-(1-aminocyclopropyl)-3-hydroxymethyl-1-pyrrolidinyl]-1-cyclopropyl-6-fluoro-1,4-dihydro-8-methyl-4-oxoquinoline-3-carboxylic acid]",acute toxicity result in words,[1]; 150 mg/kg,same result
"C[C@H]1COc2c(N3C[C@@H](F)[C@@H](C4(N)CC4)C3)c(F)c(N)c3c(=O)c(C(=O)O)cn1c23 [Example 21, 8-Amino-10-[4-(R)-(1-aminocyclopropyl)-3-(S)-fluoro-1-pyrrolidinyl]-9-fluoro-2,3-dihydro-3-(S)-methyl-7-oxo-7H-pyrido[1,2,3-de][1,4]benzoxazine-6-carboxylic acid]",acute toxicity result in words,[1]; 150 mg/kg,same result
same,MIC,"S. epidermidis, 56500; Staphylococcus epidermidis, 56500, read-out: minimum inhibitory concentration (MIC)",0.013 µg/mL
"Cc1c(N2C[C@H](C)[C@@H](C3(N)CC3)C2)c(F)c(N)c2c(=O)c(C(=O)O)cn([C@@H]3C[C@@H]3F)c12 [Example 3, 5-Amino-7-[(3R,4R)-3-(1-aminocyclopropyl)-4-methyl-1-pyrrolidinyl]-6-fluoro-1-[(1R,2S)-2-fluorocyclopropyl]-1,4-dihydro-8-methyl-4-oxoquinoline-3-carboxylic acid]",MIC,"Pr. vulgaris, 08601",0.025 µg/mL
same,MIC,"[2]; Stenotrophomonas maltophilia, IID1275, read-out: minimum inhibitory concentration (MIC)",0.1 µg/mL
same,MIC,"Ps. aeruginosa, 32104; Pseudomonas aeruginosa, 32104, Ps. aeruginosa, read-out: minimum inhibitory concentration (MIC)",0.2 µg/mL
same,MIC,"[3]; Enterococcus faecalis, ATCC19433, read-out: minimum inhibitory concentration (MIC)",0.025 µg/mL
same,MIC,"S. epidermidis, 56500; [5]",≤ 0.003 µg/mL
same,MIC,"S. aureus, 209P; [6]",≤ 0.003 µg/mL
same,MIC,"Ps. aeruginosa, 32121; Pseudomonas aeruginosa, read-out: minimum inhibitory concentration (MIC)",0.1 µg/mL
same,MIC,"E. coli, NIHJ; Escherichia coli, read-out: minimum inhibitory concentration (MIC)",≤ 0.003 µg/mL
same,MIC,"Pr. mirabilis, IFO-3849; Proteus mirabilis, IFO3849, read-out: minimum inhibitory concentration (MIC)",0.05 µg/mL
same,MIC,"S. aureus, 870307; [6]",0.025 µg/mL
same,MIC,"Str. pyogenes, G-36; Streptococcus pyogenes, G36, read-out: minimum inhibitory concentration (MIC)",≤ 0.003 µg/mL
same,MIC,"Ser. marcescens, 10100; Serratia marcescens, read-out: minimum inhibitory concentration (MIC)",0.1 µg/mL
same,MIC,"S. flexneli, 2A 5503; read-out: minimum inhibitory concentration (MIC), S. flexneli, 2A 5503",≤ 0.003 µg/mL
"C[C@H]1COc2c(N3C[C@@H](F)[C@@H](C4(N)CC4)C3)c(F)cc3c(=O)c(C(=O)O)cn1c23 [Example 17, 10-[4-(R)-(1-Aminocyclopropyl)-3-(S)-fluoro-1-pyrrolidinyl]-9-fluoro-2,3-dihydro-3-(S)-methyl-7-oxo-7H-pyrido[1,2,3-de][1,4]benzoxazine-6-carboxylic acid]",acute toxicity result in words,[1]; 150 mg/kg,same result
"COc1c(N2C[C@@H](F)[C@@H](C3(N)CC3)C2)c(F)c(N)c2c(=O)c(C(=O)O)cn([C@@H]3C[C@@H]3F)c12 [Example 16, 5-Amino-7-[4-(R)-(1-aminocyclopropyl)-3-(S)-fluoro-1-pyrrolidinyl]-6-fluoro-1-[2-(S)-fluoro-1-(R)-cyclopropyl]-1,4-dihydro-8-methoxy-4-oxoquinoline-3-carboxylic acid]",acute toxicity result in words,[1]; 150 mg/kg,same result
